Organism: Rattus norvegicus
Assay: DrugMatrix - Regimen: Daily Repeat
Assay type: toxicity, organism-based, Sprague-Dawley
Design: regimen Daily Repeat, gender Male, age 6-8 weeks
Settings: in vivo, po, route oral GAVAGE, […]; for ABSOLUTE BASOPHIL / ABSOLUTE EOSINOPHIL / ABSOLUTE LYMPHOCYTE / ABSOLUTE MONOCYTE / ABSOLUTE SEGMENTED NEUTROPHIL / BASOPHIL / EOSINOPHIL / ERYTHROCYTE COUNT / HEMATOCRIT / HEMOGLOBIN / LEUKOCYTE COUNT / LYMPHOCYTE / MEAN CORPUSCULAR HEMOGLOBIN / MEAN CORPUSCULAR HEMOGLOBIN CONCENTRATION / MEAN CORPUSCULAR VOLUME / MONOCYTE / NEUTROPHIL / NUCLEATED RED BLOOD CELLS / PLATELET COUNT: tissue Blood; for ALANINE AMINOTRANSFERASE / ALBUMIN / ALKALINE PHOSPHATASE / ASPARTATE AMINOTRANSFERASE / BLOOD UREA NITROGEN / CARBON DIOXIDE / CHLORIDE / CHOLESTEROL / CREATINE PHOSPHOKINASE / CREATININE / GLUCOSE / LACTATE DEHYDROGENASE / LIPASE / PHOSPHORUS / POTASSIUM / SODIUM / TOTAL BILIRUBIN / TOTAL PROTEIN / URIC ACID: tissue Plasma
[1] = 0 mg/kg, 72 h, dose level Control, time 3 day
[2] = 0 mg/kg, 120 h, dose level Control, time 5 day
[3] = 12 mg/kg, 72 h, dose level Low, time 3 day

COc1ncnc(NS(=O)(=O)c2ccc(N)cc2)c1OC [SULFADOXINE]
ABSOLUTE BASOPHIL [1]: 0 CELLS/uL
ABSOLUTE EOSINOPHIL [1]: 41.83 CELLS/uL
ABSOLUTE LYMPHOCYTE [1]: 8545.5 CELLS/uL
ABSOLUTE MONOCYTE [1]: 240 CELLS/uL
ABSOLUTE SEGMENTED NEUTROPHIL [1]: 906 CELLS/uL
BASOPHIL [1]: 0%
EOSINOPHIL [1]: 0.33%
ERYTHROCYTE COUNT [1]: 5.6 x10E6/uL
HEMATOCRIT [1]: 35.4%
HEMOGLOBIN [1]: 13.42 G/DL
LEUKOCYTE COUNT [1]: 9.73 x10E3/uL
LYMPHOCYTE [1]: 87.83%
MEAN CORPUSCULAR HEMOGLOBIN [1]: 23.98 pg
MEAN CORPUSCULAR HEMOGLOBIN CONCENTRATION [1]: 37.92 G/DL
MEAN CORPUSCULAR VOLUME [1]: 63.3 fL
MONOCYTE [1]: 2.5%
NEUTROPHIL [1]: 9.33%
NUCLEATED RED BLOOD CELLS [1]: 0 /100WBC
PLATELET COUNT [1]: 1032 x10E3/uL
ALANINE AMINOTRANSFERASE [1]: 72.83 u/L
ALBUMIN [1]: 4 G/DL
ALKALINE PHOSPHATASE [1]: 322.83 u/L
ASPARTATE AMINOTRANSFERASE [1]: 102.67 u/L
BLOOD UREA NITROGEN [1]: 12 mg/dL
CARBON DIOXIDE [1]: 34.33 mmol/L
CHLORIDE [1]: 97.67 MEQ/L
CHOLESTEROL [1]: 82.5 mg/dL
CREATINE PHOSPHOKINASE [1]: 410.33 u/L
CREATININE [1]: 0.18 mg/dL
GLUCOSE [1]: 164.5 mg/dL
LACTATE DEHYDROGENASE [1]: 119.5 u/L
LIPASE [1]: 11.83 u/L
PHOSPHORUS [1]: 9.52 mg/dL
POTASSIUM [1]: 5.56 MEQ/L
SODIUM [1]: 142.48 MEQ/L
TOTAL BILIRUBIN [1]: 0.18 mg/dL
TOTAL PROTEIN [1]: 5.77 G/DL
URIC ACID [1]: 0.48 mg/dL
ABSOLUTE BASOPHIL [2]: 0 CELLS/uL
ABSOLUTE EOSINOPHIL [2]: 0 CELLS/uL
ABSOLUTE LYMPHOCYTE [2]: 9065 CELLS/uL
ABSOLUTE MONOCYTE [2]: 341.33 CELLS/uL
ABSOLUTE SEGMENTED NEUTROPHIL [2]: 527 CELLS/uL
BASOPHIL [2]: 0%
EOSINOPHIL [2]: 0%
ERYTHROCYTE COUNT [2]: 5.25 x10E6/uL
HEMATOCRIT [2]: 34.08%
HEMOGLOBIN [2]: 13.5 G/DL
LEUKOCYTE COUNT [2]: 9.93 x10E3/uL
LYMPHOCYTE [2]: 91.17%
MEAN CORPUSCULAR HEMOGLOBIN [2]: 25.7 pg
MEAN CORPUSCULAR HEMOGLOBIN CONCENTRATION [2]: 39.62 G/DL
MEAN CORPUSCULAR VOLUME [2]: 64.93 fL
MONOCYTE [2]: 3.33%
NEUTROPHIL [2]: 5.5%
NUCLEATED RED BLOOD CELLS [2]: 0 /100WBC
PLATELET COUNT [2]: 1077.5 x10E3/uL
ALANINE AMINOTRANSFERASE [2]: 57.83 u/L
ALBUMIN [2]: 4.07 G/DL
ALKALINE PHOSPHATASE [2]: 319.17 u/L
ASPARTATE AMINOTRANSFERASE [2]: 83.33 u/L
BLOOD UREA NITROGEN [2]: 13.67 mg/dL
CARBON DIOXIDE [2]: 30.83 mmol/L
CHLORIDE [2]: 98.33 MEQ/L
CHOLESTEROL [2]: 64.83 mg/dL
CREATINE PHOSPHOKINASE [2]: 263.67 u/L
CREATININE [2]: 0.2 mg/dL
GLUCOSE [2]: 182.83 mg/dL
LACTATE DEHYDROGENASE [2]: 124 u/L
LIPASE [2]: 10.5 u/L
PHOSPHORUS [2]: 10 mg/dL
POTASSIUM [2]: 5.78 MEQ/L
SODIUM [2]: 142.48 MEQ/L
TOTAL BILIRUBIN [2]: 0.2 mg/dL
TOTAL PROTEIN [2]: 6 G/DL
URIC ACID [2]: 0.7 mg/dL
ABSOLUTE BASOPHIL [3]: 0 CELLS/uL
ABSOLUTE EOSINOPHIL [3]: 0 CELLS/uL
ABSOLUTE LYMPHOCYTE [3]: 9669.67 CELLS/uL
ABSOLUTE MONOCYTE [3]: 359.33 CELLS/uL
ABSOLUTE SEGMENTED NEUTROPHIL [3]: 937.67 CELLS/uL
BASOPHIL [3]: 0%
EOSINOPHIL [3]: 0%
ERYTHROCYTE COUNT [3]: 5.36 x10E6/uL
HEMATOCRIT [3]: 34.67%
HEMOGLOBIN [3]: 13.5 G/DL
LEUKOCYTE COUNT [3]: 10.97 x10E3/uL
LYMPHOCYTE [3]: 88.33%
MEAN CORPUSCULAR HEMOGLOBIN [3]: 25.23 pg
MEAN CORPUSCULAR HEMOGLOBIN CONCENTRATION [3]: 38.97 G/DL
MEAN CORPUSCULAR VOLUME [3]: 64.87 fL
MONOCYTE [3]: 2.67%
NEUTROPHIL [3]: 9%
NUCLEATED RED BLOOD CELLS [3]: 0 /100WBC
PLATELET COUNT [3]: 1062.67 x10E3/uL
ALANINE AMINOTRANSFERASE [3]: 67.67 u/L
ALBUMIN [3]: 4 G/DL
ALKALINE PHOSPHATASE [3]: 358.33 u/L
ASPARTATE AMINOTRANSFERASE [3]: 91.33 u/L
BLOOD UREA NITROGEN [3]: 12.67 mg/dL
CARBON DIOXIDE [3]: 32.33 mmol/L
CHLORIDE [3]: 98.33 MEQ/L
CHOLESTEROL [3]: 76.33 mg/dL
CREATINE PHOSPHOKINASE [3]: 340.67 u/L
CREATININE [3]: 0.29 mg/dL
GLUCOSE [3]: 154.67 mg/dL
LACTATE DEHYDROGENASE [3]: 166 u/L
LIPASE [3]: 10.67 u/L
PHOSPHORUS [3]: 10.17 mg/dL
POTASSIUM [3]: 5.55 MEQ/L
SODIUM [3]: 143.6 MEQ/L
TOTAL BILIRUBIN [3]: 0.23 mg/dL
TOTAL PROTEIN [3]: 5.77 G/DL
URIC ACID [3]: 0.33 mg/dL

From ChEMBL document CHEMBL3885881, “DrugMatrix”
